Patent US20150093333A1, “COMPOSITIONS, METHODS AND USES FOR PEPTIDES IN DIAGNOSIS, PROGRESSION AND TREATMENT OF CANCERS” (THE REGENTS OF THE UNIVERSITY OF COLORADO, body corporate, priority 2003, published 2015)
Read-outs that look alike come from different tables or passages of the source. Where no end group is shown, it is not given here. [ ]: non-standard residue; d: D form. Lys(N3) = [N-]=[N+]=NCCCC[C@H](N)C(=O)O; Pra = C#CC[C@H](N)C(=O)O

B1: Syt1: Synaptotagmin-I, curvature-sensing protein used as positive control (protein, UniProt P21707 1-421, looked up)
Synaptotagmin-1: MVSASHPEALAAPVTTVATLVPHNATEPASPGEGKEDAFSKLKQKFMNELHKIPLPPWALIAIAIVAVLLVVTCCFCVCKKCLFKKKNKKKGKEKGGKNAINMKDVKDLGKTMKDQALKDDDAETGLTDGEEKEEPKEEEKLGKLQYSLDYDFQNNQLLVGIIQAAELPALDMGGTSDPYVKVFLLPDKKKKFETKVHRKTLNPVFNEQFTFKVPYSELGGKTLVMAVYDFDRFSKHDIIGEFKVPMNTVDFGHVTEEWRDLQSAEKEEQEKLGDICFSLRYVPTAGKLTVVILEAKNLKKMDVGGLSDPYVKIHLMQNGKRLKKKKTTIKKNTLNPYYNESFSFEVPFEQIQKVQVVVTVLDYDKIGKNDAIGKVFVGYNSTGAELRHWSDMLANPRRPIAQWHTLQVEEEVDAMLAVKK
B2: C2AB: intact C2A-C2B cytoplasmic domains of rat Synaptotamin-1 (a.a. 96-421), positive control (protein, UniProt P21707 96-421, looked up, fragment)
chain: GGKNAINMKDVKDLGKTMKDQALKDDDAETGLTDGEEKEEPKEEEKLGKLQYSLDYDFQNNQLLVGIIQAAELPALDMGGTSDPYVKVFLLPDKKKKFETKVHRKTLNPVFNEQFTFKVPYSELGGKTLVMAVYDFDRFSKHDIIGEFKVPMNTVDFGHVTEEWRDLQSAEKEEQEKLGDICFSLRYVPTAGKLTVVILEAKNLKKMDVGGLSDPYVKIHLMQNGKRLKKKKTTIKKNTLNPYYNESFSFEVPFEQIQKVQVVVTVLDYDKIGKNDAIGKVFVGYNSTGAELRHWSDMLANPRRPIAQWHTLQVEEEVDAMLAVKK

What was measured:
lipid vesicles [1] = assay: 1H NMR of C2B derived peptides treated with lipid vesicles; assay type: binding
Description: To verify that the origin of the differential peptide interaction towards lipid vesicles is due to the innate property of the peptide itself and not due to the fluorophores, ^1H NMR spectrometry investigations to probe the interaction of C2B derived peptides were carried out.
This observation is in contrast to NMR profiles of peptides that are known to interact with liposomes.

[2] = tested on: 8:2 POPC/POPS lipid vesicles; assay: Fluorescence enhancement assay of C2B derived peptides with lipid vesicles; assay type: binding; conditions: for lipid vesicle binding and curvature sensing (fluorescence enhancement): 8:2 POPC/POPS vesicles 0.03 to 0.08 μm
Description: In certain examples, lipid vesicles were prepared using extrusion through membranes with pore sizes of 30, 80, and 400 nm to cover a wide range of curvatures. […] A lipid film was deposited on a glass vial by blowing down to dryness with Ar or N2 a CHCl3 solution of the lipids (Avanti Polar Lipids), followed by the removal of residual organic solvent under vacuum for several hours. The lipid film was hydrated overnight at 4° C. in PBS pH 7.4, the lipid suspension of multilamellar vesicles were subjected to five freeze-thaw cycles (except for extrusion through 400 nm pores), and followed by extrusion through polycarbonate membranes with pore diameters of 30, 80, and 400 nm to produce the desired SUVs using […]. […] An increase in the observed fluorescence intensity and a blue shifted λem maximum are directly correlated to a change in the environment surrounding the peptide, e.g., from the polar aqueous solvent to the hydrophobic lipid vesicle, and indicate a peptide-lipid interaction. The peptides were prepared by microwave-assisted SPPS, purified by reversed phase HPLC, and characterized by MALDI-TOF-MS. […] An increase in the observed fluorescence intensity and a blue shifted λem maximum are directly correlated to a change in the environment surrounding the peptide, i.e., from the polar aqueous solvent to the hydrophobic lipid vesicle, indicating a peptide-lipid interaction. Lipid vesicles composed of 8:2 palmitoyl oleoyl phosphatidylcholine (POPC) and palmitoyl oleoyl phosphatidylserine (POPS) were used to represent the approximate phospholipid composition of cellular membranes. These vesicles were prepared by extruding a suspension of multilamellar lipid vesicles in PBS buffer (pH=7.4) through polycarbonate membranes. The diameters of these lipid vesicles were measured using dynamic light scattering (DLS) that was calibrated with 50 nm polystyrene beads. […] FIG. 2 illustrates exemplary fluorescence assays performed to assess the interaction of labeled-peptides on synthetic and biologically relevant lipid vesicles. […]

lipid vesicles [3] = conditions: cited from earlier work
[4] = tested on: synthetic vesicles of sizes 100 nm and 400 nm; assay: Cosedimentation assay of MARCKS-ED with synthetic vesicles; assay type: binding; conditions: gel electrophoresis of supernatant and pellet
Excerpt: In another exemplary method, lipid vesicles were employed to the curvature-sensing behavior of the MARCKS derived peptides with various sizes and lipid components. The membrane curvature is defined as the reciprocal of the diameter of a particular particle, e.g., smaller-sized vesicles present highly curved membrane bilayers. A series of lipid models were made to represent various lipid components that closely resemble the lipid composition of biological membranes. […] Dynamic light scattering (DLS) and negative-stain transmission electron microscopy (TEM) were performed to confirm the different vesicle sizes following the pressure-controlled extrusion process through different membrane diameter pores. Commercial polystyrene beads were used as the calibration standard for the vesicle size validation experiments. Furthermore, a time-course experiment was carried out to confirm the stability of the vesicles up to 16 hours. Three different membrane diameters were extruded for the following biophysical characterizations: 30 nm, 100 nm, 400 nm, reflecting different membrane curvatures.
In another exemplary method, a cosedimentation assay was performed to test the size differentiation behavior of MARCKS-ED. Two vesicle pore sizes, 100 and 400 nm, were used in this experiment because vesicles smaller than 100 nm were difficult to pellet even at high centrifugation speed. MARCKS-ED (10 μM) was incubated with 600 μM synthetic vesicles of sizes 100 nm and 400 nm. The positive control was the intact C2A-C2B cytoplasmic domains (C2AB) of rat Synaptotamin-1 (a.a. 96-421). C2AB (1.5 μM) was treated with CaCl2 (1 mM) and incubated with 300 μM synthetic vesicles of sizes 100 nm and 400 nm. C2AB treated with vesicles was incubated at room temperature for 30 minutes, followed by centrifugation of 65,000 rpm for 45 minutes at 20° C. MARCKS-ED treated with vesicles was incubated at room temperature for 2 hours, followed by 75,000 rpm for 45 minutes at 20° C. […]

Row | Molecule | interaction with liposomes (1H NMR peak intensity) (lipid vesicles [1]; 0.03 μm vesicles) | interaction with liposomes (1H NMR peak intensity) (lipid vesicles [1]; vesicles with d=55±6 nm) | lipid vesicle binding and curvature sensing (fluorescence enhancement) [2] | Kd (lipid vesicles [3]; 105 nm vesicles) | further results
1 | Ac-GGDYDKIGKNDA-NH2 [C2B-Ac 3, linear 12-residue peptide derived from amino acids 363-372 of Syt1] | does not interact with the liposomes | weaker binding |  |  | 
2 | C2B-Cou 5: linear GGDYDKIGKNDA peptide N-terminally labeled with 7-hydroxycoumarin-3-carboxylic acid ({7‑hydroxycoumarin‑3‑carbonyl}-GGDYDKIGKNDA) | are interacting with the lipid vesicles |  | significant binding and curvature sensing property |  | 
3 | C2B-Trp 4: linear GGDYDKIGKNDA peptide with N-terminal tryptophan (N-terminal tryptophan) | are interacting with the lipid vesicles |  | significant binding and curvature sensing property |  | 
4 | C2BL3C 1: 12-residue cyclic peptide from Syt1 C2B loop 3, Click cyclization of GGPraDYDKIGKNDANle(ε-N3) (GG[Pra]DYDKIGKNDA[Lys(N3)]-NH2; triazole (positions not given here); numbers in words are those of the source; also: Pra after Gly2 and Nle(ε-N3) after Ala12 joined by click triazole (head-to-tail side-chain cyclisation)) |  | also interacts with liposomes |  |  | 
5 | B1 |  |  |  | 151 µM | fluorescence enhancement ([2]; with 30 nm vesicles, FIG. 2a): 1.28±0.02 RFU; Kd (lipid vesicles [3]; 252 nm vesicles): 263 ± 180 µM
6 | B2 |  |  |  | 151 ± 6 µM | increase in binding to smaller vesicles (105 nm) relative to the larger ones (252 nm) (lipid vesicles [3]): 1.9 fold; pull-down by 100 nm vs 400 nm PS-containing vesicles [4]: more MARCKS-ED or C2AB was pulled down by the 100 nm, PS-containing vesicles than by the larger 400 nm vesicles
